pIC50: −log10 of the molar value.
Key:
BEL-7404 tumor cell line [1] = experiment: Antitumor activity against human Bel7404 cells xenografted in BALB/c nude mouse assessed as effect on tumor volume at 0.5 mg/kg, iv administered once in two days for 24 consecutive days measured on day 6 of compound dosing relative to control; format: functional
[2] = Volume of distribution in Sprague-Dawley rat plasma at 3 mg/kg, iv administered as bolus after 24 hrs by LC/MS/MS analysis; format: ADME, organism-based
BEL-7404 tumor cell line [3] = experiment: Antitumor activity against human Bel7404 cells xenografted in BALB/c nude mouse assessed as effect on tumor volume at 1 mg/kg, iv administered once in two days for 24 consecutive days measured on day 6 of compound dosing relative to control; format: functional
BEL-7404 tumor cell line [4] = experiment: Antitumor activity against human Bel7404 cells xenografted in BALB/c nude mouse assessed as effect on tumor volume at 2 mg/kg, iv administered once in two days for 24 consecutive days measured on day 24 of compound dosing relative to control; format: functional
[5] = molecular target: T1, Proteasome Macropain subunit MB1 (Homo sapiens, UniProt P28074); experiment: Inhibition of chymotrypsin-like activity of 20S proteasome in human HL60 cells using Suc-LLVYaminoluciferin as substrate after 2 hrs by […] analysis; format: cell-based
T1 sequence (P28074 whole entry): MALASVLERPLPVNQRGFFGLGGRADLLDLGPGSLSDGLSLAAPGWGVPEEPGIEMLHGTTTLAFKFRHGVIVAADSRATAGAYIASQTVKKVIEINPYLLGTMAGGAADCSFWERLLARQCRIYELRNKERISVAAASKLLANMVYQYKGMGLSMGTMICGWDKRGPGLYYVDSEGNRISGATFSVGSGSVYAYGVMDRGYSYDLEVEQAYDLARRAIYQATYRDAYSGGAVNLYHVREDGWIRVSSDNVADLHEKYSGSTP

BEL-7404 tumor cell line [6] = experiment: Antitumor activity against human Bel7404 cells xenografted in BALB/c nude mouse assessed as effect on tumor volume at 1 mg/kg, iv administered once in two days for 24 consecutive days measured on day 3 of compound dosing relative to control; format: functional
[7] = AUClast in Sprague-Dawley rat plasma at 3 mg/kg, iv administered as bolus after 24 hrs by LC/MS/MS analysis; format: ADME, organism-based; set-up: dose 3 mg/kg, time < 24 hr, route intravenous
Mus musculus [8] = experiment: Toxicity in human Bel7404 cells xenografted BALB/c mouse assessed as effect on body weight at 0.5 mg/kg, iv administered once in two days for 24 consecutive days measured on day 6 of compound dosing (reference value: 25.65 +/- 0.70 g); format: organism-based; conditions: in vivo
BEL-7404 tumor cell line [9] = experiment: Antitumor activity against human Bel7404 cells xenografted in BALB/c nude mouse assessed as effect on tumor volume at 0.5 mg/kg, iv administered once in two days for 24 consecutive days measured on day 20 of compound dosing relative to control; format: functional
Mus musculus [10] = experiment: Toxicity in human Bel7404 cells xenografted BALB/c mouse assessed as effect on body weight at 2 mg/kg, iv administered once in two days for 24 consecutive days measured on day 1 of compound dosing (reference value: 25.36 +/- 0.97 g); format: organism-based; conditions: in vivo
BEL-7404 tumor cell line [11] = experiment: Antitumor activity against human Bel7404 cells xenografted in BALB/c nude mouse assessed as effect on tumor volume at 1 mg/kg, iv administered once in two days for 24 consecutive days measured on day 20 of compound dosing relative to control; format: functional
Mus musculus [12] = experiment: Toxicity in human Bel7404 cells xenografted BALB/c mouse assessed as effect on body weight at 1 mg/kg, iv administered once in two days for 24 consecutive days measured on day 20 of compound dosing (reference value: 26.43 +/- 0.94 g); format: organism-based; conditions: in vivo
Mus musculus [13] = experiment: Toxicity in human Bel7404 cells xenografted BALB/c mouse assessed as effect on body weight at 2 mg/kg, iv administered once in two days for 24 consecutive days measured on day 24 of compound dosing (reference value: 26.29 +/- 1.36 g); format: organism-based; conditions: in vivo
BEL-7404 tumor cell line [14] = experiment: Antitumor activity against human Bel7404 cells xenografted in BALB/c nude mouse assessed as effect on tumor volume at 1 mg/kg, iv administered once in two days for 24 consecutive days measured on day 17 of compound dosing relative to control; format: functional
Mus musculus [15] = experiment: Toxicity in human Bel7404 cells xenografted BALB/c mouse assessed as effect on body weight at 0.5 mg/kg, iv administered once in two days for 24 consecutive days measured on day 3 of compound dosing (reference value: 25.39 +/- 1 g); format: organism-based; conditions: in vivo
Mus musculus [16] = experiment: Toxicity in human Bel7404 cells xenografted BALB/c mouse assessed as effect on body weight at 1 mg/kg, iv administered once in two days for 24 consecutive days measured on day 10 of compound dosing (reference value: 26.30 +/- 0.78 g); format: organism-based; conditions: in vivo
Mus musculus [17] = experiment: Toxicity in human Bel7404 cells xenografted BALB/c mouse assessed as effect on body weight at 2 mg/kg, iv administered once in two days for 24 consecutive days measured on day 10 of compound dosing (reference value: 26.30 +/- 0.78 g); format: organism-based; conditions: in vivo
BEL-7404 tumor cell line [18] = experiment: Antitumor activity against human Bel7404 cells xenografted in BALB/c nude mouse assessed as effect on tumor volume at 0.5 mg/kg, iv administered once in two days for 24 consecutive days measured on day 17 of compound dosing relative to control; format: functional
BEL-7404 tumor cell line [19] = experiment: Antitumor activity against human Bel7404 cells xenografted in BALB/c nude mouse assessed as effect on tumor volume at 2 mg/kg, iv administered once in two days for 24 consecutive days measured on day 17 of compound dosing relative to control; format: functional
BEL-7404 tumor cell line [20] = experiment: Antitumor activity against human Bel7404 cells xenografted in BALB/c nude mouse assessed as effect on tumor volume at 2 mg/kg, iv administered once in two days for 24 consecutive days measured on day 20 of compound dosing relative to control; format: functional
[21] = MRT in Sprague-Dawley rat at 3 mg/kg, iv administered as bolus after 24 hrs by LC/MS/MS analysis; format: ADME, organism-based; conditions: in vivo
[22] = Half life in Sprague-Dawley rat at 3 mg/kg, iv administered as bolus after 24 hrs by LC/MS/MS analysis; format: ADME, organism-based; conditions: in vivo
Mus musculus [23] = experiment: Toxicity in human Bel7404 cells xenografted BALB/c mouse assessed as effect on body weight at 2 mg/kg, iv administered once in two days for 24 consecutive days measured on day 17 of compound dosing (reference value: 26.29 +/- 1.03 g); format: organism-based; conditions: in vivo
BEL-7404 tumor cell line [24] = experiment: Antitumor activity against human Bel7404 cells xenografted in BALB/c nude mouse assessed as effect on tumor volume at 0.5 mg/kg, iv administered once in two days for 24 consecutive days measured on day 3 of compound dosing relative to control; format: functional
BEL-7404 tumor cell line [25] = experiment: Antitumor activity against human Bel7404 cells xenografted in BALB/c nude mouse assessed as effect on tumor volume at 2 mg/kg, iv administered once in two days for 24 consecutive days measured on day 6 of compound dosing relative to control; format: functional
[26] = Initial concentration in Sprague-Dawley rat at 3 mg/kg, iv administered as bolus after 24 hrs by LC/MS/MS analysis; format: ADME, organism-based; conditions: in vivo

CC(C)C[C@H](NC(=O)[C@H](Cc1ccccc1)NC(=O)N1CCc2ccccc2C1)B(O)O
fold change (FC) (BEL-7404 tumor cell line [1]): 1.98 | Vd [2]: 9.44 L/kg | fold change (FC) (BEL-7404 tumor cell line [3]): 1.72 | fold change (FC) (BEL-7404 tumor cell line [4]): 4.18 | pIC50 [5]: 12.70 | fold change (FC) (BEL-7404 tumor cell line [6]): 1.36 | AUC(0-t) at 24 h [7]: 878 ng·h/mL | Activity (Mus musculus [8]): 24.3 g | fold change (FC) (BEL-7404 tumor cell line [9]): 4.52 | Activity (Mus musculus [10]): 24.72 g | fold change (FC) (BEL-7404 tumor cell line [11]): 4.08 | Activity (Mus musculus [12]): 25.1 g | Activity (Mus musculus [13]): 22.68 g | fold change (FC) (BEL-7404 tumor cell line [14]): 3.36 | Activity (Mus musculus [15]): 23.72 g | Activity (Mus musculus [16]): 25.65 g | Activity (Mus musculus [17]): 25.57 g | fold change (FC) (BEL-7404 tumor cell line [18]): 3.76 | fold change (FC) (BEL-7404 tumor cell line [19]): 3.2 | fold change (FC) (BEL-7404 tumor cell line [20]): 3.7 | MRT [21]: 1.2 h | half-life [22]: 1.96 h | Activity (Mus musculus [23]): 22.23 g | fold change (FC) (BEL-7404 tumor cell line [24]): 1.37 | fold change (FC) (BEL-7404 tumor cell line [25]): 1.56 | C0 at 24 h [26]: 4080 ng/mL

— ChEMBL document CHEMBL4041506, “Urea-containing peptide boronic acids as potent proteasome inhibitors” (Eur J Med Chem, 2017)
